Test results from patent US6413948B1, “Pharmaceutical compositions and methods of effecting a neuronal activity in an animal using naaladase inhibitors” (Guilford Pharmaceuticals Inc., priority 1996, dated 2002).
Read-outs that look alike come from different tables or passages of the source. Residues, ends and D or L forms follow the SMILES beside them.

What was measured:
cortical cell cultures [1] = experiment: In vitro assay of NAALADase inhibitors on ischemia (potassium cyanide and 2-deoxyglucose, LDH release); type: cell-based, rats; details: Rattus norvegicus, 1 h, read-out: EC50 (concentration required to cause a 50% reduction in glutamate toxicity following an ischemic insult)
NAALADase [2] = target: T1, NAALADase (UniProt P70627); experiment: In vitro inhibition of NAALADase activity; type: biochemical; details: for Ki: [3H]Glu liberated from [3H]NAAG, synaptosomal protein, 15 minutes at 37° C.; for NAALADase inhibiting activity (comparison in words): compared with 2-(phosphonomethyl)pentanedioic acid
T1 construct: Ki; other: compared with 2-(phosphonomethyl)pentanedioic acid
Procedure: Various compounds of formula I were tested for in vitro inhibition of NAALADase activity.
Substrate and product were resolved by anion-exchange liquid chromatography. […] Quisqualate (100 μM) was included in parallel assay tubes to confirm the specificity of the measurements.

[3] = tested on: spinal cord organotypic cultures; experiment: Spinal cord culture model of ALS (THA toxicity, ChAT activity); type: cell-based, rats; details: Table XII; THA without inhibitor
Procedure: Organotypic cultures were prepared from lumbar spinal cord of 8 day old rats, as described by Rothstein et al., J. Neurochem., Vol. 65, No. 2 (1995), and Rothstein et al., Proc. Natl. Acad. Sci. USA, Vol. 90, pp. 6591-6595 (July 1993). In brief, lumbar spinal cords were removed and sliced into 300 […] sections, and five slices were placed on Millipore CM semipermeable 30-mm-diameter membrane inserts. The inserts were placed on 1 ml of culture medium in 35-mm-diameter culture wells. Culture medium consisted of 50% minimal essential medium and phosphate-free HEPES (25 mM), 25% heat-inactivated horse serum, and 25% Hanks' balanced salt solution (GIBCO) supplemented with D-glucose (25.6 mg/ml) and glutamine (2 mM), at a final pH of 7.2. Antibiotic and antifungal agents were not used. Cultures were incubated at 37° C. in 5% CO2 containing humidified environment (Forma Scientific). Culture medium, along with any added pharmacological agents, was changed twice weekly.
Drugs were incubated for an additional 13 to 20 days with the 100 μM THA. At the end of this period, cultures were collected assayed for ChAT activity as described below.
To determine choline acetyltransferase (ChAT) activity, the spinal cord tissues in each dish (five slices) were pooled and frozen (−75° C.) until assay. ChAT activity was measured radiometrically by described methods using [^3H] acetyl-CoA (Amersham; Fonnum, 1975). Protein content of tissue homogenate was determined by a Coomassi Protein Assay kit (Pierce, Rockford, Ill.).

cortical cell cultures [4] = experiment: In vitro toxicity of NAAG; type: cell-based, rats; details: 20 minutes
Procedure: See TABLE VII for the Dissociated Culture Protocol as used herein. […] Experiments are performed after 21 days in cultures.
At the end of exposure, the cells are washed once with HEPES buffered saline solution and then replaced with serum free modified Earle's basal medium. The cultures are then returned to the CO2 incubator for 24 hour recovery.
This control measurement is subtracted from each experimental point.

NAALADase [5] = details: NAAG as substrate of NAALADase; cited from earlier work
MPTP lesioned mice = experiment: In vivo assay on Parkinson's Disease (MPTP lesioned mice, TH immunostaining); set-up: species or system CD1 white mice
Procedure: MPTP lesioning of dopaminergic neurons in mice was used as an animal model of Parkinson's Disease, as described by Steiner, Proc. Natl. Acad. Sci., Vol. 94, pp. 2019-2024 (March 1997). In brief, four week old male CD1 white mice were dosed IP with 30 mg/kg of MPTP for 5 days. […] At 18 days following MPTP treatment, the mice were sacrificed and their brains were removed and sectioned. Immunostaining was performed on saggital and coronal brain sections using anti-tyrosine hydroxylase (TH) antibodies to quantitate survival and recovery of dopaminergic neurons.

[6] = treated during ischemic insult and for one hour thereafter

Structure (SMILES) | Ki (NAALADase [2]) [µM] | EC50 (cortical cell cultures [1]; [6]) [µM] | other results
O=C(O)CCC(CP(=O)(O)C(O)c1ccccc1)C(=O)O (centres unmarked) [drawing 44] | – | 0.767 | –
O=C(O)CCC(CP(=O)(O)O)C(=O)O (centres unmarked) [drawing 39] | – | – | EC50 (cortical cell cultures [1]): 0.00067 µM
O=C(O)CCC(CP(=O)(O)Cc1ccccc1)C(=O)O (centres unmarked) [drawing 42] | – | 0.132 | –
Cc1ccc(P(=O)(O)CC(CCC(=O)O)C(=O)O)cc1 (centres unmarked) | 0.204 | – | –
O=C(O)CCC(CP(=O)(O)Cc1c(F)c(F)c(F)c(F)c1F)C(=O)O (centres unmarked) [drawing 48] | – | 0.002 | –
O=C(O)C(CCc1ccccc1)CP(=O)(O)O (centres unmarked) [drawing 40] | – | 0.373 | –
O=C(O)CCC(CP(=O)(O)c1ccccc1)C(=O)O (centres unmarked) [drawing 43] | – | 0.1 | –
O=C(O)CCC(CP(=O)(O)Cc1ccccc1C(F)(F)F)C(=O)O (centres unmarked) | 0.092 | – | –
N[C@H](C(=O)O)[C@H](O)C(=O)O [THA, threohydroxyaspartate, reference compound] | – | – | ChAT Activity (% of Control) [3]: 0 % of Control
O=C(O)CC(CP(=O)(O)O)C(=O)O (centres unmarked) [2-(phosphonomethyl)succinic acid] | 0.7 ± 0.0673 | – | NAALADase inhibiting activity (comparison in words) (NAALADase [2]): much lower NAALADase inhibiting activity
O=C(O)CCC(CP(=O)(O)Cc1ccc(F)cc1)C(=O)O (centres unmarked) [drawing 47] | – | 0.079 | –
O=C(O)CCC(CP(=O)(O)CCc1ccccc1)C(=O)O (centres unmarked) [drawing 49] | – | 0.834 | –
O=C(O)CCC(CP(=O)(O)CCCc1ccccc1)C(=O)O (centres unmarked) [drawing 50] | – | 4.32 | –
CCCCP(=O)(O)CC(CCC(=O)O)C(=O)O (centres unmarked) [drawing 45] | – | 0.794 | –
CC(=O)N[C@@H](CC(=O)O)C(=O)N[C@@H](CCC(=O)O)C(=O)O [NAAG, N-acetyl-aspartyl-glutamate] (Ac-Asp-Glu-OH) | – | – | % Toxicity (cortical cell cultures [4]; NAAG 3 μM): 3.51 (n = 1) %; % Toxicity (cortical cell cultures [4]; NAAG 10 μM): 4.30 ± 3.12 (n = 3) %; % Toxicity (cortical cell cultures [4]; NAAG 30 μM): 11.40 ± 6.17 (n = 3) %; % Toxicity (cortical cell cultures [4]; NAAG 100 μM): 12.66 ± 5.50 (n = 3) %; % Toxicity (cortical cell cultures [4]; NAAG 300 μM): 13.50 ± 4.0 (n = 3) %; % Toxicity (cortical cell cultures [4]; NAAG 1 mM): 21.46 ± 4.20 (n = 3) %; % Toxicity (cortical cell cultures [4]; NAAG 3 mM): 45.11 ± 4.96 (n = 3) %; Km (NAALADase [5]): 0.54 µM
Cc1ccc(CP(=O)(O)CC(CCC(=O)O)C(=O)O)cc1 (centres unmarked) [drawing 46] | – | 0.037 | –
COc1ccc(CP(=O)(O)CC(CCC(=O)O)C(=O)O)cc1 (centres unmarked) [drawing 51] | – | 1.67 | –
CN1CC=C(c2ccccc2)CC1 [MPTP, reference compound] | – | – | loss of functional dopaminergic terminals as compared to non-lesioned mice (MPTP lesioned mice; MPTP and vehicle): approximately 68%; Percent Strial TH Innervation Density (mean ± SEM) (MPTP lesioned mice; MPTP/vehicle, MPTP 30 mg/kg IP for 5 days): 7.82 ± 0.68%
CP(=O)(O)CC(CCC(=O)O)C(=O)O (centres unmarked) | 1.1 | – | –
O=C(O)CCC(CP(=O)(O)Cc1cccc(C(F)(F)F)c1)C(=O)O (centres unmarked) [drawing 41] | – | 0.112 | –

Continued, in another order:

Ki (NAALADase [2]) [µM] | Structure (SMILES) | EC50 (cortical cell cultures [1]; [6]) [µM] | other results
0.0341 | O=C(O)CCC(CP(=O)(O)Cc1ccccc1)C(=O)O (centres unmarked) [drawing 18] | – | –
0.113 | CCCCP(=O)(O)CC(CCC(=O)O)C(=O)O (centres unmarked) [drawing 21] | – | –
0.18 | Cc1cccc(P(=O)(O)CC(CCC(=O)O)C(=O)O)c1 (centres unmarked) | – | –
0.00189 ± 0.00019 | O=C(O)CCC(CP(=O)(O)CCC(=O)O)C(=O)O (centres unmarked) [2-[[(2-carboxyethyl)hydroxyphosphinyl]methyl]pentanedioic acid] | – | NAALADase inhibiting activity (comparison in words) (NAALADase [2]): lower NAALADase inhibiting activity
0.145 | O=C(O)CCC(CP(=O)(O)Cc1ccccc1F)C(=O)O (centres unmarked) | – | –
0.068 | Cc1ccc(CP(=O)(O)CC(CCC(=O)O)C(=O)O)cc1 (centres unmarked) [drawing 27] | – | –
0.232 | O=C(O)CCC(CP(=O)(O)CCCc1ccccc1)C(=O)O (centres unmarked) [drawing 24] | – | –
0.199 | O=C(O)C(CCc1ccccc1)CP(=O)(O)O (centres unmarked) [drawing 33] | – | –
0.0227 | O=C(O)CCC(CP(=O)(O)Cc1c(F)c(F)c(F)c(F)c1F)C(=O)O (centres unmarked) [drawing 31] | – | –
0.117 | O=C(O)CCC(CP(=O)(O)Cc1ccc(O)cc1)C(=O)O (centres unmarked) | – | –
0.148 | O=C(O)CCC(CP(=O)(O)CCc1ccccc1)C(=O)O (centres unmarked) [drawing 23] | – | –
0.185 | O=C(O)CCCC(CP(=O)(O)O)C(=O)O (centres unmarked) | – | –
0.532 | O=C(O)CCC(CP(=O)(O)c1ccc(F)cc1)C(=O)O (centres unmarked) | – | –
0.0225 | O=C(O)CCC(CP(=O)(O)Cc1cccc(C(F)(F)F)c1)C(=O)O (centres unmarked) [drawing 36] | – | –
0.07 | O=C(O)CCC(CP(=O)(O)Cc1ccc(F)cc1)C(=O)O (centres unmarked) [drawing 28] | – | –
0.0358 | O=C(O)CCC(CP(=O)(O)c1ccccc1)C(=O)O (centres unmarked) [drawing 19] | – | –
0.177 | O=C(O)CCC(CP(=O)(O)Cc1ccc(OCc2ccccc2)cc1)C(=O)O (centres unmarked) | – | –
